Literature values as cited in patent US20200289431A1 (priority 2019, published 2020).

Key:
[1] = in vivo
[2] = biological target: cannabinoid CB2 receptor (Homo sapiens, UniProt P34972)
Sequence of cannabinoid CB2 receptor (P34972 whole entry): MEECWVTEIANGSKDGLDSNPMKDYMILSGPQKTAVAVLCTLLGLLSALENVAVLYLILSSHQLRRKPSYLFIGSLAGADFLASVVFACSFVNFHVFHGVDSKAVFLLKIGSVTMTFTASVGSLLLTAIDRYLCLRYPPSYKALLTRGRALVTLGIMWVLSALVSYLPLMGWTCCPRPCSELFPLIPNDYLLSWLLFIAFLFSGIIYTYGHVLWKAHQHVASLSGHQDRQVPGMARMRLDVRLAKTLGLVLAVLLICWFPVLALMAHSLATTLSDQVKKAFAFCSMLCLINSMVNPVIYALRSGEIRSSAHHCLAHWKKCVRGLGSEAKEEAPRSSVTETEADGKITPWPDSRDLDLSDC

Q: Which elimination half-life [1] does the source give for `C=C(C)[C@@H]1CCC(C)=C[C@H]1c1c(O)cc(CCCCC)cc1O` [Cannabidiol] here?
A: The elimination half-life was 18 to 32 h.

Q: What about the “affinity for the cannabinoid CB2 receptor” value [2] of the same compound?
A: Its value is “very low affinity”.
